Here are results for three molecules from patent publication US9937234B2, “Compositions and methods for using and identifying antimicrobial agents” (priority 2013, dated 2018).

The assay deals with B. anthracis Sterne strain ΔftsX. Type of assay: cell-based, Bacillus anthracis.

Turning to human CXCL9, the “susceptibility of ΔftsX” value is on record as “resistant”. Take human CXCL10: the “susceptibility of ΔftsX exponential and stationary phase organisms” value is on record as “both resistant”; the “susceptibility of ΔftsX to CXCL10-mediated killing” value was “resistance”.

B1: human CXCL11 (protein, listed as Homo sapiens)
chain: QGFPMFKRGRCLCIGPGVKAVKVADIEKASIMYPSNNCDKIEVIITLKENKGQRCLNPKSKQARLIIKKVERKNF
B1: the “susceptibility of ΔftsX” value is recorded as “resistant”.
